The text below walks through data of US8142799B2, “High potency clinical anti-craving treatment and method of use” (priority 2001, dated 2012).

`N[C@@H](CCC(=O)N[C@@H](CS)C(=O)NCC(=O)O)C(=O)O` [L-glutathione]: the “time to PH breakdown” value (L-Glutathione at a PH value of roughly 7 in the amino-acid component) is listed as “a few weeks”. In addition, where the note is “at compounding”, the “PH above which L-glutathione itself breaks down” value is given as “above 7.2”.
